In ChEMBL document CHEMBL1201862, “PubChem BioAssay data set” (2004):
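Growth conditions: 96-well plates. Treatment: test compound, 48 hours, 5 concentrations. Analysis: linear interpolation between bracketing concentrations; unreached endpoints set to highest concentration. GI50: concentration for 50% inhibition of growth.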 Calls of active or inactive are those of the source. Cut-off read from the data, not from the text of the source: active = GI50 up to about 1.1 µM and inactive = higher.

Experiments:
Experiment in all cases: NCI anticancer screen, dose series, 48 h
Hs-578T = test system: Hs-578T
A549 = test system: A549
SNB-19 = test system: SNB-19
HCT-15 = test system: HCT-15
UACC-62 = test system: UACC-62
DU-145 = test system: DU-145
CAKI-1 = test system: CAKI-1
SK-MEL-2 = test system: SK-MEL-2
M14 = test system: M14
NCI-H23 = test system: NCI-H23
UACC-257 = test system: UACC-257
RXF 393 = test system: RXF 393
MDA-N = test system: MDA-N
HT-29 = test system: HT-29
BT-549 = test system: BT-549
SR = test system: SR
OVCAR-8 = test system: OVCAR-8
OVCAR-5 = test system: OVCAR-5
KM12 = test system: KM12
786-0 = test system: 786-0
MCF7 = test system: MCF7
NCI-H226 = test system: NCI-H226
T47D = test system: T47D
RPMI-8226 = test system: RPMI-8226
MDA-MB-435 = test system: MDA-MB-435
A498 = test system: A498
Malme-3M = test system: Malme-3M
HCC 2998 = test system: HCC 2998
HL-60 = test system: HL-60
HCT-116 = test system: HCT-116
LOX IMVI = test system: LOX IMVI
SN12C = test system: SN12C
CCRF-CEM = test system: CCRF-CEM
MDA-MB-231 = test system: MDA-MB-231
IGROV-1 = test system: IGROV-1
SF-295 = test system: SF-295
TK-10 = test system: TK-10
NCI-H460 = test system: NCI-H460
MOLT-4 = test system: MOLT-4
SF-268 = test system: SF-268
K562 = test system: K562
SF-539 = test system: SF-539
OVCAR-4 = test system: OVCAR-4
HOP-62 = test system: HOP-62
PC-3 = test system: PC-3
U-251 = test system: U-251
UO-31 = test system: UO-31
SNB-75 = test system: SNB-75
COLO 205 = test system: COLO 205
OVCAR-3 = test system: OVCAR-3
SK-MEL-5 = test system: SK-MEL-5
ACHN = test system: ACHN
SK-OV-3 = test system: SK-OV-3
SW-620 = test system: SW-620
NCI/ADR-RES = test system: NCI/ADR-RES
EKVX = test system: EKVX
SK-MEL-28 = test system: SK-MEL-28
NCI-H522 = test system: NCI-H522
HOP-92 = test system: HOP-92

Measured: GI50

Cc1nn(-c2ccccc2)c(C)c1/C=N/NC(=O)c1sc(=S)n(-c2ccccc2)c1N
active: IGROV-1 0.221 µM | K562 0.681 µM | SNB-75 281 nM
inactive: Hs-578T 1.85 µM | A549 3.9 µM | SNB-19 30.8 µM | UACC-62 4.62 µM | DU-145 9.66 µM | CAKI-1 1.56 µM | SK-MEL-2 29 µM | M14 4.92 µM | NCI-H23 6.81 µM | UACC-257 4.9 µM | RXF 393 1.46 µM | MDA-N 4.19 µM | HT-29 2.69 µM | BT-549 9.71 µM | SR 3.94 µM | OVCAR-8 4.69 µM | OVCAR-5 5.52 µM | KM12 6.05 µM | 786-0 3.78 µM | MCF7 5.65 µM | NCI-H226 6.52 µM | T47D 4.2 µM | RPMI-8226 3.35 µM | MDA-MB-435 4.47 µM | A498 3.63 µM | Malme-3M 3.58 µM | HCC 2998 4.61 µM | HL-60 20.5 µM | HCT-116 4.5 µM | LOX IMVI 2.09 µM | SN12C 6.28 µM | CCRF-CEM 5.16 µM | MDA-MB-231 2.18 µM | SF-295 2.42 µM | TK-10 1.63 µM | NCI-H460 3.08 µM | MOLT-4 5.58 µM | SF-268 5.22 µM | SF-539 2.39 µM | OVCAR-4 2.69 µM | HOP-62 9.84 µM | PC-3 4.03 µM | U-251 4.7 µM | UO-31 3.74 µM | COLO 205 1.42 µM | OVCAR-3 16.1 µM | SK-MEL-5 4.06 µM | ACHN 1.48 µM | SK-OV-3 1.45 µM | SW-620 45.5 µM | NCI/ADR-RES 3.62 µM | EKVX 3.39 µM | SK-MEL-28 3.25 µM
4.89 µM: HCT-15

CCCCn1c(C)c(C(=O)CC)c(C(=O)NCCN2CCN(c3ccccc3Cl)CC2)c1C
15.7 µM: HCT-15
inactive: Hs-578T 23.5 µM | A549 16.3 µM | SNB-19 15.8 µM | UACC-62 15.8 µM | NCI-H522 17.4 µM | DU-145 20.1 µM | CAKI-1 16.5 µM | SK-MEL-2 16.7 µM | M14 17.6 µM | NCI-H23 14.6 µM | UACC-257 13.4 µM | RXF 393 19.9 µM | MDA-N 16.2 µM | HT-29 13.4 µM | BT-549 16 µM | SR 13.7 µM | OVCAR-8 17.3 µM | OVCAR-5 17.5 µM | KM12 19.8 µM | 786-0 16.1 µM | MCF7 18.8 µM | NCI-H226 20.3 µM | T47D 21.8 µM | RPMI-8226 16.3 µM | MDA-MB-435 18.9 µM | A498 17.5 µM | Malme-3M 18.1 µM | HL-60 15.2 µM | HCT-116 14.3 µM | LOX IMVI 19.3 µM | SN12C 16.1 µM | CCRF-CEM 55.1 µM | MDA-MB-231 17.1 µM | IGROV-1 16.7 µM | SF-295 17.9 µM | TK-10 19.7 µM | NCI-H460 15.3 µM | MOLT-4 18.7 µM | SF-268 18.2 µM | K562 26.7 µM | SF-539 18.1 µM | OVCAR-4 17.6 µM | HOP-62 20.2 µM | PC-3 16.1 µM | U-251 16.6 µM | UO-31 12.8 µM | COLO 205 13.9 µM | OVCAR-3 21.1 µM | SK-MEL-5 14.1 µM | HOP-92 14.1 µM | ACHN 16.4 µM | SK-OV-3 19.4 µM | SW-620 47.1 µM | NCI/ADR-RES 16 µM | EKVX 16.3 µM | SK-MEL-28 20.9 µM
